Results as given in ChEMBL document CHEMBL3137667, “[Drug-induced liver injury; fourteenth updated edition of the bibliographic database of liver injuries and related drugs]” (Gastroenterol Clin Biol, 2004).

Legend:
[1] = human
[2] = human; remark: listed apart in the source
[3] = Highest frequency of acute liver toxicity observed during clinical trials, expressed as a percentage. [column '% AIGUE' in source]; conditions: human
[4] = Highest frequency of moderate liver toxicity observed during clinical trials, expressed as a percentage. [column '% BIOL' in source]; conditions: human
[5] = human, serum
[6] = human, serum; remark: listed apart in the source
[7] = human, serum, 4383 h
[8] = human; remark: listed apart in the source
[9] = human; remark: listed apart in the source
[10] = human; remark: listed apart in the source
[11] = human; remark: listed apart in the source
[12] = human; remark: listed apart in the source
[13] = human; remark: listed apart in the source
[14] = human; remark: listed apart in the source
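Throughout, for Hepatotoxicity (association with vascular disease): count of indexed literature references reporting vascular liver injury in humans, e.g. peliosis hepatitis, hepatic veno-occlusive disease or Budd-Chiari syndrome.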
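Throughout, for Hepatotoxicity (benign tumour): value is a count of indexed literature references citing a benign tumour confirmed by histopathology.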
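Throughout, for Hepatotoxicity (choleostasis): human cholestatic liver injury, shown by histopathology or by peak ALT or AST elevation over alkaline phosphatase ratio below 2, value counts indexed literature reports.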
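Throughout, for Hepatotoxicity (chronic liver disease): chronic liver injury confirmed by histopathology or persistently raised serum aminotransferase activity beyond 6 months, value given as the count of indexed literature references.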
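Throughout, for Hepatotoxicity (cirrhosis): value is a count of indexed literature references reporting cirrhosis confirmed by histopathology.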
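Throughout, for Hepatotoxicity (cytolytic): human cytolytic liver injury, shown by histopathology or by a ratio above 5 of peak ALT or AST elevation to alkaline phosphatase elevation, value counts indexed references.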
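Throughout, for Hepatotoxicity (granulomatous hepatitis): value is a count of indexed literature references reporting granulomatous liver disease confirmed by histopathology.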
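Throughout, for Hepatotoxicity (malignant tumour): malignant tumour confirmed by histopathology, value gives the count of indexed literature references reporting it.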
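Throughout, for Hepatotoxicity (severe hepatitis): human clinical data: severe hepatitis, meaning potentially life-threatening liver failure or clinically observed cases, the value counts how many indexed literature references report it.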
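Throughout, for Hepatotoxicity (steatosis): steatosis confirmed by histopathology, value is the count of indexed references.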

CC(C)(Sc1cc(C(C)(C)C)c(O)c(C(C)(C)C)c1)Sc1cc(C(C)(C)C)c(O)c(C(C)(C)C)c1 [PROBUCOL]
Hepatotoxicity (malignant tumour) [1]: 0 | Hepatotoxicity (association with vascular disease) [2]: 0 | Hepatotoxicity (acute) [3]: 0% | Hepatotoxicity (moderate) [4]: 0% | Hepatotoxicity (acute) [5]: 0 | Hepatotoxicity (moderate) [6]: 2 | Hepatotoxicity (chronic liver disease) [7]: 0 | Hepatotoxicity (granulomatous hepatitis) [8]: 0 | Hepatotoxicity (severe hepatitis) [9]: 0 | Hepatotoxicity (choleostasis) [10]: 0 | Hepatotoxicity (cirrhosis) [11]: 0 | Hepatotoxicity (cytolytic) [12]: 0 | Hepatotoxicity (benign tumour) [13]: 0 | Hepatotoxicity (steatosis) [14]: 0

C(=N\NC1=NCCN1)/c1c2ccccc2c(/C=N/NC2=NCCN2)c2ccccc12 [BISANTRENE]
Hepatotoxicity (malignant tumour) [1]: 0 | Hepatotoxicity (association with vascular disease) [2]: 0 | Hepatotoxicity (acute) [3]: 0% | Hepatotoxicity (moderate) [4]: 49% | Hepatotoxicity (acute) [5]: 1 | Hepatotoxicity (moderate) [6]: 4 | Hepatotoxicity (chronic liver disease) [7]: 0 | Hepatotoxicity (granulomatous hepatitis) [8]: 0 | Hepatotoxicity (severe hepatitis) [9]: 0 | Hepatotoxicity (choleostasis) [10]: 1 | Hepatotoxicity (cirrhosis) [11]: 0 | Hepatotoxicity (cytolytic) [12]: 0 | Hepatotoxicity (benign tumour) [13]: 0 | Hepatotoxicity (steatosis) [14]: 0

CC(NN)c1ccccc1 (stereo not drawn) [MEBANAZINE]
Hepatotoxicity (malignant tumour) [1]: 0 | Hepatotoxicity (association with vascular disease) [2]: 0 | Hepatotoxicity (acute) [3]: 0% | Hepatotoxicity (moderate) [4]: 9% | Hepatotoxicity (acute) [5]: 0 | Hepatotoxicity (moderate) [6]: 1 | Hepatotoxicity (chronic liver disease) [7]: 0 | Hepatotoxicity (granulomatous hepatitis) [8]: 0 | Hepatotoxicity (severe hepatitis) [9]: 0 | Hepatotoxicity (choleostasis) [10]: 0 | Hepatotoxicity (cirrhosis) [11]: 0 | Hepatotoxicity (cytolytic) [12]: 0 | Hepatotoxicity (benign tumour) [13]: 0 | Hepatotoxicity (steatosis) [14]: 0

CCC(C(=O)NC(N)=O)c1ccccc1 (stereo not drawn) [PHENETURIDE]
Hepatotoxicity (malignant tumour) [1]: 0 | Hepatotoxicity (association with vascular disease) [2]: 0 | Hepatotoxicity (acute) [3]: 0% | Hepatotoxicity (moderate) [4]: 0% | Hepatotoxicity (acute) [5]: 0 | Hepatotoxicity (moderate) [6]: 1 | Hepatotoxicity (chronic liver disease) [7]: 0 | Hepatotoxicity (granulomatous hepatitis) [8]: 0 | Hepatotoxicity (severe hepatitis) [9]: 0 | Hepatotoxicity (choleostasis) [10]: 0 | Hepatotoxicity (cirrhosis) [11]: 0 | Hepatotoxicity (cytolytic) [12]: 0 | Hepatotoxicity (benign tumour) [13]: 0 | Hepatotoxicity (steatosis) [14]: 0

CO/N=C(\C(=O)N[C@@H]1C(=O)N2C(C(=O)[O-])=C(C[n+]3ccc(N)n3CCO)CS[C@H]12)c1csc(N)n1 [CEFOSELIS]
Hepatotoxicity (malignant tumour) [1]: 0 | Hepatotoxicity (association with vascular disease) [2]: 0 | Hepatotoxicity (acute) [3]: 0% | Hepatotoxicity (moderate) [4]: 25% | Hepatotoxicity (acute) [5]: 0 | Hepatotoxicity (moderate) [6]: 33 | Hepatotoxicity (chronic liver disease) [7]: 0 | Hepatotoxicity (granulomatous hepatitis) [8]: 0 | Hepatotoxicity (severe hepatitis) [9]: 0 | Hepatotoxicity (choleostasis) [10]: 0 | Hepatotoxicity (cirrhosis) [11]: 0 | Hepatotoxicity (cytolytic) [12]: 0 | Hepatotoxicity (benign tumour) [13]: 0 | Hepatotoxicity (steatosis) [14]: 0

C[C@@H]1CN(c2c(F)c(N)c3c(=O)c(C(=O)O)cn(C4CC4)c3c2F)C[C@H](C)N1 [SPARFLOXACIN]
Hepatotoxicity (malignant tumour) [1]: 0 | Hepatotoxicity (association with vascular disease) [2]: 0 | Hepatotoxicity (acute) [3]: 0% | Hepatotoxicity (moderate) [4]: 20% | Hepatotoxicity (acute) [5]: 0 | Hepatotoxicity (moderate) [6]: 29 | Hepatotoxicity (chronic liver disease) [7]: 0 | Hepatotoxicity (granulomatous hepatitis) [8]: 0 | Hepatotoxicity (severe hepatitis) [9]: 0 | Hepatotoxicity (choleostasis) [10]: 0 | Hepatotoxicity (cirrhosis) [11]: 0 | Hepatotoxicity (cytolytic) [12]: 0 | Hepatotoxicity (benign tumour) [13]: 0 | Hepatotoxicity (steatosis) [14]: 0

O=C(Cn1ccnc1[N+](=O)[O-])NCc1ccccc1 [BENZNIDAZOLE]
Hepatotoxicity (malignant tumour) [1]: 0 | Hepatotoxicity (association with vascular disease) [2]: 0 | Hepatotoxicity (acute) [3]: 0% | Hepatotoxicity (moderate) [4]: 0% | Hepatotoxicity (acute) [5]: 1 | Hepatotoxicity (moderate) [6]: 0 | Hepatotoxicity (chronic liver disease) [7]: 0 | Hepatotoxicity (granulomatous hepatitis) [8]: 0 | Hepatotoxicity (severe hepatitis) [9]: 0 | Hepatotoxicity (choleostasis) [10]: 0 | Hepatotoxicity (cirrhosis) [11]: 0 | Hepatotoxicity (cytolytic) [12]: 0 | Hepatotoxicity (benign tumour) [13]: 0 | Hepatotoxicity (steatosis) [14]: 0

Cc1c(N)nc([C@@H](CC(N)=O)NC[C@@H](N)C(N)=O)nc1C(=O)N[C@@H](C(=O)N[C@@H](C)[C@H](O)[C@@H](C)C(=O)N[C@H](C(=O)NCCc1nc(-c2nc(C(=O)NCCCN(C)CCCN(Cc3ccc(OCc4ccccc4)c(OCc4ccccc4)c3)Cc3ccc(OCc4ccccc4)c(OCc4ccccc4)c3)cs2)cs1)[C@@H](C)O)C(O[C@H]1O[C@@H](CO)[C@H](O)[C@@H](O)[C@H]1O[C@H]1O[C@@H](CO)[C@@H](O)[C@H](OC(N)=O)[C@@H]1O)c1c[nH]cn1 (stereo partly drawn)
Hepatotoxicity (malignant tumour) [1]: 0 | Hepatotoxicity (association with vascular disease) [2]: 0 | Hepatotoxicity (acute) [3]: 0% | Hepatotoxicity (moderate) [4]: 23.5% | Hepatotoxicity (acute) [5]: 0 | Hepatotoxicity (moderate) [6]: 1 | Hepatotoxicity (chronic liver disease) [7]: 0 | Hepatotoxicity (granulomatous hepatitis) [8]: 0 | Hepatotoxicity (severe hepatitis) [9]: 0 | Hepatotoxicity (choleostasis) [10]: 0 | Hepatotoxicity (cirrhosis) [11]: 0 | Hepatotoxicity (cytolytic) [12]: 0 | Hepatotoxicity (benign tumour) [13]: 0 | Hepatotoxicity (steatosis) [14]: 0

CC1CN(c2cc3c(cc2F)c(=O)c(C(=O)O)cn3-c2ccc(F)cc2F)CCN1 (stereo not drawn) [TEMAFLOXACIN]
Hepatotoxicity (malignant tumour) [1]: 0 | Hepatotoxicity (association with vascular disease) [2]: 0 | Hepatotoxicity (acute) [3]: 0% | Hepatotoxicity (moderate) [4]: 44.4% | Hepatotoxicity (acute) [5]: 0 | Hepatotoxicity (moderate) [6]: 33 | Hepatotoxicity (chronic liver disease) [7]: 0 | Hepatotoxicity (granulomatous hepatitis) [8]: 0 | Hepatotoxicity (severe hepatitis) [9]: 0 | Hepatotoxicity (choleostasis) [10]: 0 | Hepatotoxicity (cirrhosis) [11]: 0 | Hepatotoxicity (cytolytic) [12]: 0 | Hepatotoxicity (benign tumour) [13]: 0 | Hepatotoxicity (steatosis) [14]: 0

COc1ccc(/C=C/C(=O)Nc2ccccc2C(=O)O)cc1OC
Hepatotoxicity (malignant tumour) [1]: 0 | Hepatotoxicity (association with vascular disease) [2]: 0 | Hepatotoxicity (acute) [3]: 0% | Hepatotoxicity (moderate) [4]: 7.5% | Hepatotoxicity (acute) [5]: 1 | Hepatotoxicity (moderate) [6]: 6 | Hepatotoxicity (chronic liver disease) [7]: 0 | Hepatotoxicity (granulomatous hepatitis) [8]: 0 | Hepatotoxicity (severe hepatitis) [9]: 0 | Hepatotoxicity (choleostasis) [10]: 0 | Hepatotoxicity (cirrhosis) [11]: 0 | Hepatotoxicity (cytolytic) [12]: 0 | Hepatotoxicity (benign tumour) [13]: 0 | Hepatotoxicity (steatosis) [14]: 0

REVIPARIN SODIUM
Hepatotoxicity (malignant tumour) [1]: 0 | Hepatotoxicity (association with vascular disease) [2]: 0 | Hepatotoxicity (acute) [3]: 0% | Hepatotoxicity (moderate) [4]: 10.3% | Hepatotoxicity (acute) [5]: 0 | Hepatotoxicity (moderate) [6]: 1 | Hepatotoxicity (chronic liver disease) [7]: 0 | Hepatotoxicity (granulomatous hepatitis) [8]: 0 | Hepatotoxicity (severe hepatitis) [9]: 0 | Hepatotoxicity (choleostasis) [10]: 0 | Hepatotoxicity (cirrhosis) [11]: 0 | Hepatotoxicity (cytolytic) [12]: 0 | Hepatotoxicity (benign tumour) [13]: 0 | Hepatotoxicity (steatosis) [14]: 0

CC(C)(C#N)c1cc(Cn2cncn2)cc(C(C)(C)C#N)c1 [ANASTROZOLE]
Hepatotoxicity (malignant tumour) [1]: 0 | Hepatotoxicity (association with vascular disease) [2]: 0 | Hepatotoxicity (acute) [3]: 0% | Hepatotoxicity (moderate) [4]: 0% | Hepatotoxicity (acute) [5]: 0 | Hepatotoxicity (moderate) [6]: 1 | Hepatotoxicity (chronic liver disease) [7]: 0 | Hepatotoxicity (granulomatous hepatitis) [8]: 0 | Hepatotoxicity (severe hepatitis) [9]: 0 | Hepatotoxicity (choleostasis) [10]: 0 | Hepatotoxicity (cirrhosis) [11]: 0 | Hepatotoxicity (cytolytic) [12]: 0 | Hepatotoxicity (benign tumour) [13]: 0 | Hepatotoxicity (steatosis) [14]: 0
